Reference: patent publication US20260325465A1, “SHP-1 INHIBITORS FOR TREATING CANCER” (MDX MANAGEMENT LLC, priority 2022, published 2026)

Columns and labels:
LLC lung cancer = experiment: Study-3: iSHP-1 with RT and αPD-L1, LLC lung cancer; type: in vivo, mice; settings: TPI-1 3 or 5 mg/kg i.p. every 3 days, right flank RT 8Gy-4Gy-2Gy, αPD-L1 100 μg
Procedure: FIGS. 13A-13E depict pulse-intermittent SHP-1 inhibition (iSHP-1) combination with RT and αPD-L1 treating pancreatic cancer and lung cancer. FIG. 13A depicts experimental schemes. […] Concomitantly, the tumor at the right flank was treated with 8Gy X-ray radiation (RT). After two days of intermittent period, mice on day 4 were treated with the 2nd cycle TPI-1 (i.p.) of the same dose while RT reduced to 4Gy applied to the right flank tumor. The 3rd cycle (day 7) iSHP-1 combination with RT reduced to 2Gy. Anti-PD-L1 Ab (100 μg, i.p.) was given a day following TPI-1 plus RT. FIG. 13B depicts luminescent image tracing KPC-luc and LLC-luc tumor changes post treatment. FIG. 13C depicts record of tumor volume changes and animal survival up to post-treatment 45 days.
Modalities & Dosing Strategy: i) iSHP-1—TPI-1, 3 or 5 mg/kg, i.p., 1× every 3 days. ii) Tumor focal RT: 8Gy-4Gy-2Gy, given to right flank simultaneously with iSHP-1. iii) αPD-L1: 100 μg, i.p., given a day after iSHP-1 plus RT

[1] = test system: KPC pancreatic ductal adenocarcinoma; experiment: TME analysis of KPC pancreatic ductal adenocarcinoma with tumor-focal RT; type: in vivo, murine; settings: TPI-1 combined RT
Description: FIGS. 9A-9C depict that the inhibition of SHP-1 by TPI-1 combined with tumor-focal RT reprogram TME of KPC pancreatic ductal adenocarcinoma towards proinflammatory cancer elimination. FIG. 9A depicts treatment scheme and TME analyses on day 5. The table depicts the percentages of various populations within total CD45+ cells. The bar graph depicts the percentages of various populations within total cells.

[2] = test system: MC38 colorectal carcinoma; experiment: TME analysis of MC38 colorectal carcinoma in mice; type: in vivo, murine
Description: FIGS. 8A-8E depict that SHP-1 inhibition combined with TLR agonists (αTLR) reprograms TME of MC38 colorectal carcinoma. FIG. 8A depicts MC38 tumor treatment scheme.

MC38 solid tumor = experiment: Cytokine secretion of excised MC38 tumor cubes (ELISA); design: species or system murine; settings: 100 nM, 24 h
Description: (§1) FIGS. 6A-6D depict that the inhibition of SHP-1 promotes anti-tumor effects or pro-tumor effects under different circumstances. FIG. 6A depicts that intratumoral macrophages upregulate expression of iRs (Pir-B, Siglec E, F and G, and SIRPα) along with tumor progression to late-stage large sizes. KPC pancreatic tumors of small sizes (<150 mm^3) and those grown to larger sizes (>800 mm^3) were dissociated to single cells, followed by flow cytometry analyses for cell surface protein expression on macrophages (gated F4/80+). FIG. 6B depicts that the inhibition of SHP-1 alone promotes TME immunosuppression. Excised MC38 solid tumor cubes were treated with SHP-1 inhibitor TPI-1 (100 nM) or vehicle (DMSO) in a cell culture setting. After 24 h, tumor secreting cytokines into the culture medium were assayed by ELISA.

macrophages [3] = experiment: Macrophage cytokine production under immunosuppressive or proinflammatory stimulation with cancer cell ligation; type: cell-based
Description: as §1
The SHP-1 activity in non-therapeutic solid tumors is low (see FIGS. 7A-7D), and this low activity inhibits immunosuppressive receptor signaling. […] In parallel experiments, the same SHP-1 inhibitors augmented macrophage responses to the M1 stimuli IFNγ and LPS and enhanced proinflammatory cytokine production.

[4] = test system: THP-1 leukemia cells and HT29 colon cancer cells; experiment: Phagocytosis by human monocytes-derived macrophages; type: cell-based; settings: 1 μg/ml
Procedure: (§2) FIGS. 2A-2G depict that the inhibition of SHP-1 enhances macrophage proinflammatory response, antigen presentation and phagocytosis in a tumor milieu. FIG. 2A and FIG. 2B depict that SHP-1 activity in macrophages is triggered by proinflammatory stimulation and the extracellular cancer cell ligation (“touching”) of macrophages (green bar in FIG. 2A). […] The SHP-2 inhibitor SHP099 (1 μg/ml) was used in assays. FIG. 2C depicts the inhibition of SHP-1 by TPI-1 dose-dependently recovers IFNγ/LPS-induced activation of STAT1 (p-STAT1) and Erk1/2 (p-Erk1/2) de-activated by SHP-1 (red line). FIG. 2D and FIG. 2E depict that the inhibition of SHP-1 in macrophages by TPI-1 enhances production of proinflammatory cytokines (FIG. 2D) and expression of immunogenic antigen presentation machinery (FIG. 2E) by IFNγ/LPS in a tumor milieu. […] The SHP-1 and SHP-2 inhibitors TPI-1 and SHP099, respectively, was used at 1 μg/ml in assays.

KPC pancreatic tumor = experiment: Cytokines, antigen presentation and chemokines in KPC tumor after treatment; type: in vivo, murine
Description: FIGS. 7A-7F depict that the inhibition of SHP-1 unleashes proinflammatory response and antigen presentation in solid tumor upon therapies. […] Low PTP/SHP-1 activity was found in untreated, homeostatic tumor. […] Similar data were obtained by studying colorectal carcinoma MC38.

macrophages [5] = experiment: Macrophage cytokine production and antigen presentation machinery in a tumor milieu; type: cell-based; settings: IFNγ/LPS
Procedure: as §2
Macrophages with high SHP-1 activity in a tumor milieu diminish production of proinflammatory cytokines but produce high IL-10 (see FIG. 2D, blue bar) under stimulation of IFNγ/LPS. This reinforcement of immunosuppression was reversed by SHP-1 inhibition. Additionally, inhibition of SHP-1 also enabled proinflammatory-activated macrophages to overcome the “don't-eat-me” barrier and initiate potent phagocytosis towards cancer cells, irrespective of cancer cells expressing of CD47 (FIG. 2F and FIG. 2G).

[6] = with αTLR or RT, single dose TPI-1
[7] = with αTLR or RT, single dose TPI-1, 6-18 h

## O=C1C=CC(=O)C(c2cc(Cl)ccc2Cl)=C1 [TPI-1]
LLC lung cancer
  tumor elimination incl. distal lesions: effectively eliminating or repressing KPC pancreatic cancer and LLC lung cancer along with distal lesions
[1]
  CD8 T cell expansion and p15E reactivity: marked expansion of CD8 T cells with significant high frequency of reactivity to tumor-specific antigen p15E
  intratumoral macrophage phenotype: proinflammatory phenotype and increased antigen presentation capacity
[1]; day 5
  immune cell infiltration in TME: induced neutrophil (PMN) infiltration, NK cell increases and CD8 T cell expansion
[2]; TPI-1 and αTLR
  intratumoral macrophages: marked reduction of intratumoral macrophages
[2]; TPI-1 combined with αTLR
  TME reprogramming: reduction of tumor cells, and increases in immune infiltration especially tumoricidal CD8 T cells, neutrophils (PMN) and NK cells, while reduction of macrophages, MDSC and Treg
MC38 solid tumor
  tumor production of IL-6: increased tumor production of IL-6 and IL-10
  tumor production of IL-10: increased tumor production of IL-6 and IL-10
Macrophages [3]; IFNγ and LPS
  macrophage production of IL-12 and TNFα: dose-dependently augmented macrophage proinflammatory response with increased IL-12 and TNFα
Macrophages [3]; IL-4/13 or IL-10 stimulation
  macrophage production of IL-10 and TGFβ: dose-dependently augmented
[4]
  phagocytosis of cancer cells: promotes proinflammatory-activated macrophages for phagocytosis of cancer cells
KPC pancreatic tumor; with TLR agonists or RT, single dose TPI-1, 6-18 h post treatment
  proinflammatory cytokines in tumor: high expression of proinflammatory cytokines
KPC pancreatic tumor; [6]
  TGFRs and CCL2 in TME: reduced
  chemokines that attract neutrophils, NK and T cells: increased in the TME
KPC pancreatic tumor; [7]
  IL-10 and TGFβ in tumor: abating IL-10 and TGFβ
  antigen presentation markers of intratumoral macrophages: elevated cell surface markers MHC-I, MHC-II, and costimulatory molecules CD80, CD86, CD40, OX40L
Macrophages [5]
  expression of immunogenic antigen presentation machinery: elevated macrophage production of proinflammatory cytokines and expression of immunogenic antigen presentation machinery
  macrophage proinflammatory cytokine production: elevated macrophage production of proinflammatory cytokines
  reinforcement of immunosuppression (IL-10): reversed
